Earlier results, collected in patent US11930809B2, “Preservation of biomaterial properties and methods of storing” (LIFELINE SCIENTIFIC, INC., priority 2012, dated 2024).

What was measured:
[1] = system: chondrocytes in articular cartilage; settings: conventional cryopreservation by freezing in a solution that includes DMSO
[2] = early Phase clinical studies

For C[S+](C)[O-] [DMSO, dimethyl sulfoxide], which “death of chondrocytes in articular cartilage” value [1] is on record?
Its value is 80-100%.

For COC(=O)C1=CO[C@@H](O)[C@@H]2C(CO)=CC[C@H]12 [genipin], which “expression of TIMP-1” value (TIMP-1) is on record?
Its value is “upregulate the expression of TIMP-1”.

For “PCK3145: synthetic peptide corresponding to amino acids 31-45 of prostate secretory protein 94 (EWQTDNCETCTCYET; UniProt P08118 51-65, looked up, fragment)”, which tolerability [2] is on record?
Its tolerability is “well tolerated”.
